Test results: patent US9598720B2, “Monomeric and polymeric linkers useful for conjugating biological molecules and other substances” (DAKO Denmark A/S, priority 2005, dated 2017)
Entries after “also recorded” stand apart in the source; their conditions may differ.

test system: repetitive DNA sequence in the centromere of the human chromosome 17; assay: FISH on metaphases with fluorescein labeled PNAs, green signal compared with a red fluorescent PNA; conditions: visual and Leica QFISH Measure Intensity
Excerpt: The PNA sequence was directed at a repetitive DNA sequence in the centromere of the human chromosome 17, allowing the PNAs to be compared by FISH on metaphases. To erase specimen variation, each of the PNAs was mixed with a red fluorescent PNA directed at the same centromere region on chromosome 17, and the intensity of the red and green signals compared visually and quantified by the “Measure Intensity” function in the Leica QFISH program.

Substance	intensity of the green signal
Ac-Lys(Flu)-L30-AACGGGATAACTGCACCT-L30-Lys(Flu)-L90-Lys(Flu)-L90-Lys(Flu)-NH2 (all peptide nucleic acid (PNA); PNA with Lys(Flu) fluorescein and L30/L90 linkers at the termini, C-terminal amide, further chemistry not fully specified) [Linker derivative 15]	more intense signals
((FlU-L60)2-Lys-L60)2-LyS-L30-AACGGGATAACTGCACCT-NH2 (all peptide nucleic acid (PNA); PNA with Lys(Flu) fluorescein and L30/L90 linkers at the termini, C-terminal amide, further chemistry not fully specified) [Linker derivative 19]	more intense signals
H-Lys(Flu)-L30-AACGGGATAACTGCACCT-L30-Lys(Flu)-L90-Lys(Flu)-L90-Lys(Flu)-NH2 (all peptide nucleic acid (PNA); PNA with Lys(Flu) fluorescein and L30/L90 linkers at the termini, C-terminal amide, further chemistry not fully specified) [Linker derivative 16]	more intense signals; also recorded: most intense
